Measurements published in the NIST ThermoML archive (doi:10.1021/je4003916).
Numbers after ± are expanded uncertainties.

Assay: refractive index (Na D-line) (dimensionless); xn = mol fraction of the nth substance listed
Conditions: 101 kPa, Liquid, Dipping refractometry (monochromatic)

C1CCOC1 [tetrahydrofuran] + CCCCO
refractive index
Conditions | x1 = 0.1001 | x1 = 0.2003 | x1 = 0.3 | x1 = 0.4003 | x1 = 0.5 | x1 = 0.6001 | x1 = 0.7003 | x1 = 0.8006 | x1 = 0.9002 | x1 = 1
288.15 K | 1.402 ± 0.0002 | 1.4028 ± 0.0002 | 1.4036 ± 0.0002 | 1.4043 ± 0.0002 | 1.4051 ± 0.0002 | 1.4059 ± 0.0002 | 1.4068 ± 0.0002 | 1.4077 ± 0.0002 | 1.4087 ± 0.0002 | 1.4096 ± 0.0002
293.15 K | 1.3999 ± 0.0002 | 1.4006 ± 0.0002 | 1.4013 ± 0.0002 | 1.4021 ± 0.0002 | 1.4028 ± 0.0002 | 1.4035 ± 0.0002 | 1.4044 ± 0.0002 | 1.4052 ± 0.0002 | 1.4061 ± 0.0002 | 1.407 ± 0.0002
298.15 K | 1.3978 ± 0.0002 | 1.3985 ± 0.0002 | 1.3991 ± 0.0002 | 1.3998 ± 0.0002 | 1.4004 ± 0.0002 | 1.4011 ± 0.0002 | 1.4019 ± 0.0002 | 1.4027 ± 0.0002 | 1.4035 ± 0.0002 | 1.4043 ± 0.0002
303.15 K | 1.3957 ± 0.0002 | 1.3963 ± 0.0002 | 1.3969 ± 0.0002 | 1.3974 ± 0.0002 | 1.398 ± 0.0002 | 1.3987 ± 0.0002 | 1.3994 ± 0.0002 | 1.4001 ± 0.0002 | 1.4009 ± 0.0002 | 1.4016 ± 0.0002
308.15 K | 1.3936 ± 0.0002 | 1.3941 ± 0.0002 | 1.3946 ± 0.0002 | 1.3951 ± 0.0002 | 1.3957 ± 0.0002 | 1.3962 ± 0.0002 | 1.3969 ± 0.0002 | 1.3975 ± 0.0002 | 1.3983 ± 0.0002 | 1.399 ± 0.0002
313.15 K | 1.3914 ± 0.0002 | 1.3919 ± 0.0002 | 1.3923 ± 0.0002 | 1.3928 ± 0.0002 | 1.3933 ± 0.0002 | 1.3938 ± 0.0002 | 1.3943 ± 0.0002 | 1.3949 ± 0.0002 | 1.3956 ± 0.0002 | 1.3963 ± 0.0002
318.15 K | 1.3893 ± 0.0002 | 1.3897 ± 0.0002 | 1.3901 ± 0.0002 | 1.3905 ± 0.0002 | 1.3909 ± 0.0002 | 1.3913 ± 0.0002 | 1.3918 ± 0.0002 | 1.3923 ± 0.0002 | 1.3929 ± 0.0002 | 1.3936 ± 0.0002
323.15 K | 1.3871 ± 0.0002 | 1.3874 ± 0.0002 | 1.3878 ± 0.0002 | 1.3881 ± 0.0002 | 1.3885 ± 0.0002 | 1.3888 ± 0.0002 | 1.3893 ± 0.0002 | 1.3897 ± 0.0002 | 1.3903 ± 0.0002 | 1.3909 ± 0.0002
